Test results reported in PMC7397249, “Properly Substituted Cyclic Bis-(2-bromobenzylidene) Compounds Behaved as Dual p300/CARM1 Inhibitors and Induced Apoptosis in Cancer Cells” (Molecules, 2020).

How the values were obtained:
p300 [1] = molecular target: T1, p300 (Homo sapiens, UniProt Q09472); assay: HotSpot HAT activity assay, p300; format: biochemical; settings: 10-dose, triplicate, from 200 μM; histone H3, [acetyl-3H]-acetyl-CoA
T1 construct: p300 (aa 1284–1673, 30 nM); purchased Reaction Biology Corporation
T1 sequence (Q09472 1284-1673): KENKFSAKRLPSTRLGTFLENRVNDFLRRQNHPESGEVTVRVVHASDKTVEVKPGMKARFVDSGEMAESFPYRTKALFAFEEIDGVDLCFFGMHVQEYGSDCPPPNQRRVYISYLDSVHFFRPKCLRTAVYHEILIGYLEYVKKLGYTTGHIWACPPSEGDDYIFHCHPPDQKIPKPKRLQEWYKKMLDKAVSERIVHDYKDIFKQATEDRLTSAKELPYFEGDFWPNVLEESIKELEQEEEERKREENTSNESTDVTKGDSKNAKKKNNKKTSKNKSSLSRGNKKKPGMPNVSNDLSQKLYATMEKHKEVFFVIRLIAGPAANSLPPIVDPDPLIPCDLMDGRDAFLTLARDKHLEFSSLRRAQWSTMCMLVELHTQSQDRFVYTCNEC
Procedure: (§1) The newly synthesized compounds 4a–n were tested to determine their effects against acetylation and methylation epigenetic targets. First, 4a–n were screened in vitro against the two HAT enzymes p300 and PCAF. […] To determine the activity against SIRT1 and -2, 4a–n were tested starting from 200 μM solutions using a modified Fluor de Lys fluorescence-based assay with amino acids 379–382 (Arg-His-Lys-Lys(Ac)) of human p53 conjugated with aminomethylcoumarin as substrate and NAD^+ as co-substrate. […] Furthermore, 4a–n were tested against a human five-membered Polycomb repressive complex 2 (PRC2) containing EZH2, embryonic ectoderm development (EED), suppressor of zeste 12 (SUZ12), RbAp48, and adipocyte enhancer-binding protein (AEBP2), to assess their capability to inhibit the catalytic unit EZH2.
The effect of tested derivatives on the catalytic activity of p300 and PCAF was determined in a HotSpot HAT activity assay by Reaction Biology Corporation (Malvern, PA, USA) according to the company’s standard operating procedure. In brief, the recombinant catalytic domains of PCAF (aa 492–658, 250 nM) or p300 (aa 1284–1673, 30 nM) were incubated with histone H3 as substrate (5 µM) and [Acetyl-^3H]-Acetyl Coenzyme A (3 µM) as an acetyl donor in reaction buffer (50 mM Tris-HCl (pH 8.0), 50 mM NaCl, 0.1 mM EDTA, 1 mM DTT, 1 mM PMSF, 1% DMSO) for 1 h at 30 °C in the presence or absence of a dose titration of the compounds. The reaction mixture was delivered to filter-paper for detection. IC50 values were analyzed using Excel and GraphPad Prism 6.0 software (GraphPad Software Inc., San Diego, CA, USA). The experiments for p300 were performed in triplicate.

SIRT1 = molecular target: T2, SIRT1 (Homo sapiens, UniProt Q96EB6); assay: Modified Fluor de Lys fluorescence-based assay, SIRT1; format: biochemical; settings: from 200 μM; p53 379-382 AMC substrate, NAD+
T2 construct: host or cells: E. coli
T2 sequence (Q96EB6 whole entry): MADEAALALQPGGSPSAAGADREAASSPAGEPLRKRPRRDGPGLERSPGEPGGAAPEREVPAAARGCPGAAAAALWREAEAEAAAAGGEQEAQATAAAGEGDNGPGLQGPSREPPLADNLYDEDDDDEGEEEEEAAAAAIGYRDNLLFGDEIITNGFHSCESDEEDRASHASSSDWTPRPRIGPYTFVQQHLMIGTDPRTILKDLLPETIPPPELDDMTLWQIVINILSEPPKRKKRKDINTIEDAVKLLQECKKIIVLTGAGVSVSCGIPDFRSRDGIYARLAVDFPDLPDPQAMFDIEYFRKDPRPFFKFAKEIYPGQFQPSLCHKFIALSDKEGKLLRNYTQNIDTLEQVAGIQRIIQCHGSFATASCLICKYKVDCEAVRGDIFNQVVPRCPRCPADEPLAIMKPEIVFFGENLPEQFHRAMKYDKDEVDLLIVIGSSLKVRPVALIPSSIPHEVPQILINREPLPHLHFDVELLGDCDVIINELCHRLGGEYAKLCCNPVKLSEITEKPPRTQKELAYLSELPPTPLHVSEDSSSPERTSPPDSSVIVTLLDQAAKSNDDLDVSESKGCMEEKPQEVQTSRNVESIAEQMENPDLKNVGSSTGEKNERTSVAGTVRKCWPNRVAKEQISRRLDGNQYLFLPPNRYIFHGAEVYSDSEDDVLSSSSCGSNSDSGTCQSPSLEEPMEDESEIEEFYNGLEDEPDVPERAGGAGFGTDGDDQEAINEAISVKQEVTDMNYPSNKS
Procedure: as §1
(§2) The SIRT inhibition assay was performed using human recombinant SIRT1 and SIRT2 produced in E. coli. Compounds were tested using a modified Fluor de Lys fluorescence-based assay kit based on the method described in the BioMol product sheet (AK-555, AK-556, Milan, Italy). […] The second stage is initiated by the addition of the Developer II (KI176), including nicotinamide (NAM), nicotinamide that stops the SIRT1/2 activity, and the fluorescent signal is produced. The fluorescence was measured on a fluorometric reader (Infinite 200 TECAN, Männedorf, Switzerland) with excitation set at 360 nm and emission detection set at 460 nm.

SIRT2 = molecular target: T3, SIRT2 (Homo sapiens, UniProt Q8IXJ6); assay: Modified Fluor de Lys fluorescence-based assay, SIRT2; format: biochemical; settings: from 200 μM; p53 379-382 AMC substrate, NAD+
T3 construct: host or cells: E. coli
T3 sequence (Q8IXJ6 whole entry): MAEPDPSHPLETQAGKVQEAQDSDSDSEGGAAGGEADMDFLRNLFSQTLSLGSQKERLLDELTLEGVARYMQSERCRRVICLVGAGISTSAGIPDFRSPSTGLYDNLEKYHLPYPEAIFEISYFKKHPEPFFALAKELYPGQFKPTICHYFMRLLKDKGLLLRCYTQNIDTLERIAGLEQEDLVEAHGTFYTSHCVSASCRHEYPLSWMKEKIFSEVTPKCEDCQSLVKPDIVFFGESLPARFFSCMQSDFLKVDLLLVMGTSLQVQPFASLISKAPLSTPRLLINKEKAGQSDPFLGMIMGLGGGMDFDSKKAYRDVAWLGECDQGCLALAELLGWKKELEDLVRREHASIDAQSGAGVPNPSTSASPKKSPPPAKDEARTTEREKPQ
Procedure: as §1, §2

p300 [2] = assay: Western blot of acetylation marks (p300 inhibition) in MCF-7 cells; format: cell-based, human; settings: 5 μM, 30 h
Procedure: (§3) In MCF-7 cells, the levels of acetyl-H3, acetyl-H4, H3K27me3, and H3R17me2 were detected by western blot analyses as functional tests for p300 (acH3 and acH4), EZH2 (H3K27me3) and CARM1 (H3R17me2) inhibition in cells, respectively (Figure 5).
(§4) The procedures were performed as described in [30, 31]. Primary antibodies used were: Ac-H3 (Millipore, Milan, Italy); Ac-H4 (Millipore, Milan, Italy); Ac-H3K9-14 (Diagenode, Ougrée, Belgium); Ac-α-tubulin (Sigma-Aldrich), H3K27me3 (Diagenode); H3R17me2 (Diagenode); EZH2 (Abcam, Cambridge, UK). H3 (Sigma-Aldrich), H4 (Abcam), GAPDH (Sigma) and ERKs (Santa Cruz, Biotechnology, TX, USA) were used to normalize the total protein extracts (see also Supplementary Material).

EZH2 = assay: Western blot of H3K27me3 (EZH2) in MCF-7 cells; format: cell-based, human; settings: 5 μM, 30 h
Procedure: as §3, §4

U937 cells = assay: Cell cycle and apoptosis (sub-G1) analysis by FACS in U937 cells; format: cell-based, human; settings: 5 μM, 30 h
Procedure: Compounds 4a–n were tested at 5 μM for 30 h in NB4 […] and U937 AML cells among hematological cancers, and in MCF-7 breast cancer and SH-SY5Y neuroblastoma cells among solid cancers, to determine their effects in cell cycle and apoptosis induction.
In the same cell lines, the induction of apoptosis has been evaluated through the percentage of the sub-G1 peaks.
For colorimetric exclusion, the cells (2 × 10^5 cells/mL) were plated in multiwells in triplicate. After stimulations at different times and concentrations, cells were diluted in the ratio 1:1 in Trypan Blue (Sigma) and counted with an optical microscope. For cell cycle analyses, cells were plated (2 × 10^5 cells/mL) and were harvested, centrifuged at 1200 rpm for 5 min and resuspended in 500 μL of a hypotonic solution containing 1× PBS, Sodium Citrate 0.1%, 0.1% NP-40, RNAase A and […] Propidium Iodide (PI). After 30 min at room temperature (RT) in the dark, samples were acquired by FACS-Calibur (BD Bioscences, San Jose, CA, USA) using CellQuest software (BD Biosciences). The percentage in different phases of the cell cycle was determined by ModFit LT V3 software (Verity). All experiments were performed in triplicate. Cell death was measured as percentage of cells in sub-G1 phase as in [30].

CARM1 = assay: Western blot of H3R17me2 (CARM1 inhibition) in NB4 cells; format: cell-based, human; settings: 5 μM, 30 h
Description: In NB4 cells, the levels of acetyl-H3 (acH3) and acetyl-H4 (acH4) as well as those of acetyl-H3K9/14 (AcH3K9/14, see Supplementary material) and of the non-histone substrate acetyl-α-tubulin (Ac-Tubulin) were detected as an index of p300 inhibition (Figure 4). In the same cell line, the levels of H3K27me3, histone mark of the EZH2 catalytic activity (Figure 4), as well as the level of the EZH2 expression (see Supplementary material) have been determined. Last, the amount of H3R17me2, the functional read-out of CARM1 inhibition, was determined (Figure 4).
as §4

SMILES | IC50 (p300 [1]) [µM] | IC50 (SIRT1) [µM] | IC50 (SIRT2) [µM] | levels of acetyl-H4 (p300 [2]) | levels of H3K27me3 (EZH2) | effect on cell cycle phases (U937 cells) | levels of H3R17me2 (CARM1) | levels of acetyl-α-tubulin (p300 [2])
O=C1/C(=C/c2ccccc2Br)CN(Cc2ccccc2)C/C1=C\c1ccccc1Br [Compound 4e, 1-benzyl-3,5-bis((E)-2-bromobenzylidene)piperidin-4-one] | 2.19 ± 0.77 | > 200 | > 200 | decrease of the acetylation levels | reduction of the H3K27me3 levels | – | – | –
O=C1/C(=C/c2ccccc2Br)CN(CCc2ccccc2)C/C1=C\c1ccccc1Br [Compound 4f, 3,5-Bis((E)-2-bromobenzylidene)-1-phenethylpiperidin-4-one] | 30.2 ± 2.71 | > 200 | > 200 | – | – | block in G2/M phase | – | –
O=C1/C(=C/c2ccccc2Br)CN(CCCc2ccccc2)C/C1=C\c1ccccc1Br [Compound 4g, 3,5-Bis((E)-2-bromobenzylidene)-1-(3-phenylpropyl)piperidin-4-one] | 40.7 ± 2.39 | > 200 | > 200 | – | – | arrested the cell cycle at the G1/S phase | – | –
O=C1/C(=C/c2ccccc2Br)CN(CC(=O)c2ccccc2)C/C1=C\c1ccccc1Br [Compound 4h, 3,5-Bis((E)-2-bromobenzylidene)-1-(2-oxo-2-phenylethyl)piperidin-4-one] | 1.03 ± 0.22 | > 200 | > 200 | – | reduction of the H3K27me3 levels | – | most effective | –
O=C1/C(=C/c2ccccc2Br)CN(CCCC(=O)c2ccccc2)C/C1=C\c1ccccc1Br [Compound 4j, 3,5-Bis((E)-2-bromobenzylidene)-1-(4-oxo-4-phenylbutyl)piperidin-4-one] | 2.13 ± 1.35 | > 200 | > 200 | decrease of the acetylation levels | reduction of the H3K27me3 levels | – | – | –
O=C1/C(=C/c2ccccc2Br)CN(C(=O)c2ccccc2)C/C1=C\c1ccccc1Br [Compound 4k, 1-Benzoyl-3,5-bis((E)-2-bromobenzylidene)piperidin-4-one] | 2.09 ± 0.79 | > 200 | > 200 | – | – | – | – | decrease of the acetylation levels
O=C1/C(=C/c2ccccc2Br)CN(C(=O)Cc2ccccc2)C/C1=C\c1ccccc1Br [Compound 4l, 3,5-Bis((E)-2-bromobenzylidene)-1-(2-phenylacetyl)piperidin-4-one] | 0.45 ± 0.03 | > 200 | > 200 | decrease of the acetylation levels | – | block in G2/M phase | most effective | –
O=C1/C(=C/c2ccccc2Br)CN(C(=O)CCc2ccccc2)C/C1=C\c1ccccc1Br [Compound 4m, 3,5-Bis((E)-2-bromobenzylidene)-1-(3-phenylpropanoyl)piperidin-4-one] | 0.46 ± 0.1 | > 200 | > 200 | – | reduction of the H3K27me3 levels | block in G2/M phase | most effective | –
O=C1/C(=C/c2ccccc2Br)CN(C(=O)C=Cc2ccccc2)C/C1=C\c1ccccc1Br [Compound 4n, 3,5-Bis((E)-2-bromobenzylidene)-1-cinnamoylpiperidin-4-one] | 1.23 ± 0.29 | > 200 | > 200 | decrease of the acetylation levels | reduction of the H3K27me3 levels | arrested the cell cycle at the G1/S phase | – | –
